Reference: patent EP2562253B1 (priority 2010, dated 2011)
Read-outs that look alike come from different tables or passages of the source.

How the values were obtained:
wild-type enzyme RBS [1] = format: biochemical, Burkholderia sp. YT strain
wild-type enzyme RBS [2] = assay: Reaction inhibition of wild-type enzyme RBS by various compounds; format: biochemical, Burkholderia sp. YT strain; conditions: 3-quinuclidinone 5 mM, NADPH 0.25 mM, pH 6.5, 30°C
Description: A cell-free extract of the wild-type enzyme was obtained as in Reference Example 4. The 3-quinuclidinone reduction activity of this cell-free extract was measured, and given as activity without inhibitor. The cell-free extract was added to 100 mM phosphate buffer (pH 6.5) containing the compounds shown in Table 2, 3-quinuclidinone (5 mM) and the coenzyme NADPH (0.25 mM), and reacted for 1 minute at 30°C, and reduction activity of 3-quinuclidinone was calculated from the rate of decrease in absorbancy at 340 nm.
Relative activity was calculated by the following formula, and used as an indicator of reaction inhibition by the various compounds. Relative activity (%) = [enzyme activity in presence of compound]/[enzyme activity without inhibitor] × 100 [formula]

Compound	Remaining activity (%) (wild-type enzyme RBS [1]; pH 6.5)	Relative activity (%) (wild-type enzyme RBS [2]; additive 0.31 M, 310000 µM)	Relative activity (%) (wild-type enzyme RBS [2]; additive 0.62 M, 620000 µM)	Remaining activity (%) (wild-type enzyme RBS [1]; pH 6.5, 310000 µM)	Remaining activity (%) (wild-type enzyme RBS [1]; pH 6.5, 620000 µM)
O=C(CCl)c1cccc(Cl)c1 [m-chlorophenacyl chloride]	0%	–	–	–	–
O=C(CCCl)c1cccs1 [3-Chloro-1-(2-thienyl)propan-1-one]	0%	–	–	–	–
Potassium chloride	–	14%	5%	46%	26%
OC(CCCl)c1cccs1 (stereo not drawn) [3-Chloro-1-(2-thienyl)propan-1-ol]	0%	–	–	–	–
CC(C)=O [Acetone]	80%	–	–	–	–
CC(=O)c1ccccc1 [Acetophenone]	81%	–	–	–	–
O=C(CCl)c1ccccc1 [Phenacyl chloride]	0%	–	–	–	–
Sodium chloride	–	15%	3%	46%	24%
Cl.O=C1CN2CCC1CC2 [3-Quinuclidinone hydrochloride]	–	–	–	73%	44%
CC(=O)c1cccs1 [Acetylthiophene]	72%	–	–	–	–
Sodium sulfate	–	31%	17%	76%	79%
